Earlier results, collected in patent US9730899B2, “Controlled release pharmaceutical composition with resistance against the influence of ethanol employing a coating comprising neutral vinyl polymers and excipients” (Evonik Roehm GmbH, priority 2009, dated 2017).
Counter-ions that a name gives are not always drawn. Like-named read-outs stand apart in the source and are kept apart here.

Conditions: USP classification, between 15° C. and 25° C.

SMILES | Solubility in water | Solubility in ethanol (HCl) | Solubility in ethanol (listed as diltiazem, HCl) | Solubility in ethanol (listed as metoprolol) | Solubility in ethanol | Solubility in ethanol (listed as naloxone) | Solubility in ethanol (listed as theophyllin)
C=CCN1CC[C@]23c4c5ccc(O)c4O[C@H]2C(=O)CC[C@@]3(O)[C@H]1C5 [Naloxone] | Soluble (more than 10 to 30) |  |  |  | Slightly soluble (more than 100 to 1000) | slightly soluble | 
Cn1c(=O)c2[nH]cnc2n(C)c1=O [Theophylline] | Slightly soluble (more than 100 to 1000) |  |  |  | Sparingly soluble (more than 30 to 100) |  | sparingly soluble

More lines, main results first:

Solubility in water | Solubility in ethanol (HCl) | Solubility in ethanol (listed as diltiazem, HCl) | Solubility in ethanol (listed as metoprolol) | SMILES | Solubility in ethanol | Solubility in ethanol (listed as naloxone) | Solubility in ethanol (listed as theophyllin)
Practically insoluble (more than 10.000) |  |  |  | NC(=O)N1c2ccccc2C=Cc2ccccc21 [Carbamazepine] | Soluble (more than 10 to 30) |  | 
Freely soluble (from 1 to 10) | Sparingly soluble (more than 30 to 100) | sparingly soluble |  | COc1ccc([C@@H]2Sc3ccccc3N(CCN(C)C)C(=O)[C@@H]2OC(C)=O)cc1 [Diltiazem HCl] |  |  | 
Freely soluble (from 1 to 10) |  |  | sparingly soluble | COCCc1ccc(OCC(O)CNC(C)C)cc1 (centres unmarked) [Metoprolol succinate] | Sparingly soluble (more than 30 to 100) |  | 
